Results: EP4458916A1, “PHOTOCATALYTICALLY ACTIVE COATING COMPOSITION, METHOD FOR THE PRODUCTION THEREOF AND USE THEREOF” (priority 2023, dated 2024)
Like-named read-outs stand apart in the source and are kept apart here.

Legend:
[1] = Immersion test: binding / wash-out of photocatalysts from SolGel coatings (1 h deionised water, UV-VIS signal loss); format: physicochemical; settings: Rezeptur 5 coating on glass, dye 10 bis 40 mM; 1 h deionised water pH 6 ± 1, 22 ± 3 °C; relative UV-VIS signal loss at absorption maximum
Experimental: Für alle Untersuchungen wurden nach Beispiel 8 beschichtete Glasträger verwendet.
Um das Auswaschen der verschiedenen Farbstoffe in den Sol-Gel-Beschichtungen zu beurteilen wurde ein Immersionstest in vollentsalztem Wasser mit einem pH-Wert von (6 ± 1) und einer Wassertemperatur von (22 ± 3) °C für eine Stunde durchgeführt. Dazu wurden zunächst Schichten (Rezeptur 5, Beispiel 4, aufgefüllt mit 3,0 mL 2-Propanol; sh. Tabelle 3) mit erhöhter Farbstoffkonzentration (10 bis 40 mM; um die notwendige Auflösung bei der dünnen Schicht zu erreichen) auf Glas-Objektträgern erzeugt. Diese wurden nach dem Ablüften bei Raumtemperatur (30 min) eine Stunde bei 60°C nachgehärtet. Anschließend wurden die Schichten direkt im UV-VIS-Spektrometer vermessen. Die Ausgangswerte (Absorptionsmaximum des jeweiligen Farbstoffs) sollten dabei zwischen 0,05 A.U. und 1,50 A.U. liegen.
Nach einer Stunde in VE-Wasser wurden die Prüfkörper getrocknet und erneut gemessen. Aus den beiden Messungen wurde ein relativer Signalverlust in Prozent bei dem farbstoffspezifischen Absorptionsmaximum bestimmt.
Dieser Immersionstest diente dazu, das Auswaschverhalten verschiedener Farbstoffe aus Beschichtungssystemen zu beurteilen. Weiter soll er dabei helfen, verschiedene Farbstoffklassen oder verschiedene Farbstoffderivate einer Farbstoffklasse bezüglich dieser Charakteristik miteinander zu vergleichen. Die Ergebnisse sind in den folgenden Tabellen sortiert nach Stoffgruppen zusammengefasst: […]

S.aureus = format: cell-based; settings: for Log10 Reduktion Probe / Log10 Reduktion Dunkelkontrolle: label = Katalysator of the coating, Rezeptur 2 nach Beispiel 2c on Melamin with S-25a 2 mM
Bakterien = experiment: Room light tests (Raumlichtversuche): antimicrobial efficacy at 10 µW/cm^2 for 24 h; format: cell-based; settings: Farbstoff 5 mM, coating Rezeptur 3, Beispiel 2a (2,5 eq aqueous boric acid, 50 mM)
Experimental: Um die antimikrobielle Wirksamkeit in einem realen Szenario abzuschätzen, wurden sogenannte Raumlichtversuche durchgeführt. Dazu wurden die mit Bakterien versetzten Probenträger mit einer, für Innenräume repräsentativen Lichtintensität von 10 µW/cm^2 für einen Zeitraum von 24 h bestrahlt.
Herstellung der Beschichtung erfolgte gemäß Beispiel 2a (2,5 eq wässrige Borsäure, 50 mM), mit Rezeptur 3. Die Ergebnisse sind in der Tabelle 63 zusammengefasst. Tabelle 63: Antimikrobielle Wirksamkeit bei Raumlichtbedingungen

I. monocytoqenes = experiment: Bacteria test following modified ISO 22196, photodynamic effect of different photocatalysts in the SolGel coating on I. monocytoqenes; format: cell-based; settings: Rezeptur 4 nach Beispiel 5 on Melamin, 4 h
Excerpt: (§1) Die Bestimmung der antimikrobiellen Aktivität erfolgte nach einer modifizierten Version der ISO 22196:2011-08 ("Messung von antibakterieller Aktivität auf Kunststoff- und anderen porenfreien Oberflächen", Ausgabedatum: 2011-08).
(§2) Bei der Testdurchführung wurde ein dünner Flüssigkeitsfilm, in dem die Bakterien enthalten sind (1,25 x 10^4 /cm2), direkt auf die Probekörper (2,5 cm x 2,5 cm) aufgebracht. Direkt nach Beimpfung wurden von der Nullprobe die Bakterien von den Probekörperoberflächen mittels Ultraschall und Vortexen abgelöst und die Keimzahl (KBE (engl. CFU), Kolonie-bildende Einheit) bestimmt (t0-Wert). Ein weiterer Satz Nullproben und antimikrobiell ausgestatteter Proben wurden mit Bakterien im Flüssigkeitsfilm bei Raumtemperatur inkubiert. Nach 4 h wurden überlebende Bakterien von den Probekörperoberflächen mittels Ultraschall und Vortexen abgelöst und die Keimzahl bestimmt (t4-Wert).
(§3) Im Unterschied zu der in der ISO 22196:2011-08 beschriebenen Methode wurde das Inokulum nicht mit einer Folie abgedeckt und die Inkubationszeit von 24 auf 4 Stunden reduziert. Weiterhin wurden die Platten der Proben 3 und 4 mit Licht mit einer Intensität von 300 µW/cm2 belichtet.
(§4) Der Bakterientest wurde in Anlehnung an ISO 22196 nach oben beschriebener Methode durchgeführt. Die Ergebnisse sind Tabelle 57a bis 57b dargestellt. Tabelle 57a: Photodynamische Wirkung verschiedener Katalysatoren in der SolGel Beschichtung gegen S.aureus

S. enterica = experiment: Bacteria test following modified ISO 22196, photodynamic effect of different photocatalysts in the SolGel coating on S. enterica; format: cell-based; settings: Rezeptur 4 nach Beispiel 5 on Melamin, 4 h
Excerpt: as §1, §2, §3, §4

| Compound | Verlust durch Auswaschen [1] [%] | other results |
| --- | --- | --- |
| CC(=O)OCCC1=Cc2nc1ccc1[nH]c(cc1CCOC(C)=O)c1nc(c(O)cc3[nH]c2cc3CCOC(C)=O)C(CCOC(C)=O)=C1 [S-60a] | 8 | – |
| COCCC1=Cc2nc1ccc1[nH]c(cc1CCOC)c1nc(c(O)cc3[nH]c2cc3CCOC)C(CCOC)=C1 [S-58a, 9-Hydroxy-2,7,12,17-tetra-(beta-methoxyethyl)porphycen] | 4 | S. aureus Log10 Reduktion Probe (S.aureus; Rezeptur 4 nach Beispiel 5 on Melamin, 4 h, 300 µW/cm2): 1,4±0,1; S. aureus Log10 Reduktion Dunkelkontrolle (S.aureus; Rezeptur 4 nach Beispiel 5 on Melamin, 4 h, dark): 0,0±0,1 |
| COCCC1=Cc2nc1c(O)cc1[nH]c(cc1CCOC)c1nc(c(NC(C)=O)cc3[nH]c2cc3CCOC)C(CCOC)=C1 [S-70] | 4 | – |
| CC(=O)OCCC1=Cc2nc1ccc1[nH]c(cc1CCOC(C)=O)c1nc3c(cc4[nH]c2cc4CCOC(C)=O)OCCC3=C1 [S-60b] | 2 | – |
| COCCC1=Cc2nc1ccc1[nH]c(cc1CCOC)c1nc(c(OCCCO)cc3[nH]c2cc3CCOC)C(CCOC)=C1 [S-61a] | 6 | – |
| O=C1C(COc2ccc(CO)cc2)=Cc2cccc3cccc1c23 [S-13] | – | log reduction at 5000 µM (Bakterien; 24 h, dark control, read-out: Log10 Reduktion Dunkelkontrolle): 0.9; log reduction at 5000 µM (Bakterien; illuminated 10 µW/cm^2 for 24 h, read-out: Log10 Reduktion 24 h): 1.9 |
| COCCC1=Cc2nc1ccc1[nH]c(cc1CCOC)c1nc(c(OCCCN)cc3[nH]c2cc3CCOC)C(CCOC)=C1 [S-62] | 3 | – |
| CC(O)C(=O)[O][Al]([O]C(=O)C(C)O)[O]C(=O)C(C)O (centres unmarked) [AL] | – | Log10 Reduktion Probe (S.aureus; 4 h, 300 µW/cm2): 3,3±0,4; Log10 Reduktion Dunkelkontrolle (S.aureus; 4 h, dark): 0,2±0,7 |
| COCCC1=Cc2nc1ccc1[nH]c(cc1CCOC)c1nc(c(OCCCC(=O)O)cc3[nH]c2cc3CCOC)C(CCOC)=C1 [S-66a] | 3 | – |
| CCCCCCCCCCOc1ccc(/C=C/C(=O)CC(=O)/C=C/c2ccc(OCCCCCCCCCC)cc2)cc1 [S-52a] | 13 | – |
| O=C1C(C[n+]2ccccc2)=Cc2cccc3cccc1c23 [S-24a] | 9 | I. monocytoqenes Log10 Reduktion Probe (I. monocytoqenes; 300 µW/cm2): 4,5±0,3; I. monocytoqenes Log10 Reduktion Dunkelkontrolle (I. monocytoqenes; dark): 0,0±0,3; Photodynamische Wirkung gegen S.aureus (Log10 Reduktion), compared with the values of S-25a (S.aureus; Rezeptur 2, Beispiel 2a, filled up with IPA 1:2/1:5/1:8, dye content varied (Tabelle 56)): im Rahmen des Fehlers die gleichen Werte; S. enterica Log10 Reduktion Probe (S. enterica; 300 µW/cm2): 4,5±0,8; S. enterica Log10 Reduktion Dunkelkontrolle (S. enterica; dark): 0,0±0,2 |
| 2,7,12-Tris(pyridinio-p-tolyl)-17-(p-(methoxymethyl)phenyl) porphycen bromid [reference compound] | > 70 | – |
| COCCC1=Cc2nc1ccc1[nH]c(cc1CCOC)c1nc(c(OCCCNC(=O)CCC(N)C(=O)O)cc3[nH]c2cc3CCOC)C(CCOC)=C1 (centres unmarked) [S-75] | 9 | – |
| NCCCOC1=CC(=O)c2cccc3cccc1c23 [S-08] | 13 | – |
| O=P(N1CCCC1)(N1CCCC1)N1CCCC1 [PO] | – | Log10 Reduktion Probe (S.aureus; 4 h, 300 µW/cm2): 3,6±0,3; Log10 Reduktion Dunkelkontrolle (S.aureus; 4 h, dark): 0,0±0,1 |
| COCCC1=Cc2nc1ccc1[nH]c(cc1CCOC)c1nc(c(OC(=O)CCC(N)C(=O)O)cc3[nH]c2cc3CCOC)C(CCOC)=C1 (centres unmarked) [S-74] | 11 | – |
| COCCC1=Cc2nc1ccc1[nH]c(cc1CCOC)c1nc(c(OCCC[Si](OC)(OC)OC)cc3[nH]c2cc3CCOC)C(CCOC)=C1 [S-68] | 9 | – |
| O=C1C(COc2ccc(O)cc2)=Cc2cccc3cccc1c23 [S-12] | 3 | – |
| OCCC1=Cc2nc1ccc1[nH]c(cc1CCO)c1nc(c(O)cc3[nH]c2cc3CCO)C(CCO)=C1 [Verbindungen S-59a] | 8 | – |
